Measured values reported in patent publication US11434468B2, “Lactic acid bacteria and its applications” (Bened Biomedical Co., Ltd., priority 2017, dated 2022).

Legend:
[1] = system: rats subjected to chronic mild stress; test: Open field test after 4 weeks of chronic mild stress protocol; assay type: in vivo, rat; settings: 4 weeks chronic mild stress, daily oral gavage, 5 min open field test
Protocol: Open field test was performed using an opaque rectangular box with the dimension of 32 cm high, 38 cm width and 52 cm long was placed in the center of the experiment room supplied with bright lighting. A video camera was set up above the rectangular box to capture the behavior of the animals.
Each animal was gently transferred from its cage into the OFT and allowed to freely explore inside the box. […] The box was cleaned with 70% ethanol during the interval of each test throughout the assessment. The duration of exploratory and immobility was expressed as mean±standard of mean from six replicates (n=6) per group.
The open field test is broadly used to assess exploratory behavior and validated for use in the measurement of anxiety-related behaviors. The procedure consists of subjecting the rat, to an unknown environment from which escape is prevented by surrounding walls. […] Increased exploratory behaviours in rats indicate less anxiety states, whereas immobility indicate anxiety behaviour in rats.

[2] = system: rats subjected to chronic mild stress; test: Morris water maze after chronic mild stress; assay type: in vivo, rat; settings: 4 weeks chronic mild stress, daily oral gavage, comparison between groups, P<0.05, FIG. 6(a)
Protocol: The diameter of the MWM used was 210 cm, where the height of the pool was 51 cm with non-reflective interior surfaces. The maze was placed in a room with a video camera set up on top of the maze to capture and record the animal's behavior. The water maze was filled up with water of temperature ranging within 19-22° C. to avoid the rats from getting temperature shock (hypothermia or hyperthermia). Then, a colorless and transparent circular goal or platform (designated as escape platform) with the diameter of 10-12 cm was submerged 1-2 cm below the water surface and ensured with stability to avoid tipping of animal when the rats climb on it.
The start locations of the MWM was designated at East, West and South East, while the escape platform is submerge at North East. A consecutive four daily trials were performed using these three start locations. Briefly, the animals were gently placed on the first start locations and allowed to swim freely to search for the escape platform. A maximum of two minutes was given for each animal to perform the search for the escape platform. All rats were dried thoroughly with clean towel after the Morris test before returning them to their respective cage. Time taken by each animal to locate the escape, escape latency (seconds) is expressed as mean±standard of mean from six replicates (n=6) per group. […]

[3] = system: rats subjected to chronic mild stress; test: Elevated plus maze after 4 weeks of chronic mild stress protocol; assay type: in vivo, rat; settings: 4 weeks chronic mild stress, daily oral gavage (PS150 1×10^9 cfu; protein 300 mg/kg; alprazolam), 5 min, comparison between groups
Source text: The elevated plus maze (EPM) consists of four arms, two open arms without walls and two enclosed walls of 40 cm high, 50 cm long and 15 cm wide. Each arm of the maze is attached with firm metallic legs with 70 cm high. The EPM was placed in a room with bright lighting, close to the center of the room. The levels of illumination of both open and closed arms were maintained similar. A video camera was set up above the elevated plus maze to capture and record the animal's behavior.
Animal was taken out from its cage and placed at the middle (ie. the junction of the open and closed arm) of EPM, facing away from the maze towards the wall. Each animal was given 5 minutes to explore freely on the EPM. Throughout the assessment, the EPM was cleaned and dried with 70% ethanol before accessing the next animal. The number of open arm entries and time spent in open arms were observed, timed and recorded. The number of entries to open arms and the duration spent on open arms were recorded and expressed as mean±standard of means from six replicates (n=6) per group.
Analyses on rat behavior were carried out after 4 weeks of chronic mild stress protocol. […] Rats were placed at the junction of the four arms of the maze, facing an open arm, and entries/duration in each arm was recorded for 5 min. […]

[4] = system: rats subjected to chronic mild stress; test: Forced swim test after 4 weeks of chronic mild stress protocol; assay type: in vivo, rat; settings: 4 weeks chronic mild stress, daily oral gavage, 5 min forced swim test, comparison between groups, P<0.05, FIG. 3
Protocol: Forced swim test (FST) was performed in a black opaque swim cylinder with a depth of 68 cm and diameter of 40 cm. The cylinder was filled up with water to the depth of 30 cm, leaving some space on top to prevent the escape of rat. A video camera was set up above the swim cylinder to capture and record the animals' behavior during the test.
Each animal was gently placed into the water in the swim cylinder and was given 5 minutes to swim freely in the swim cylinder. The behavior of the animals were observed and recorded throughout the test. All rats were dried thoroughly with clean towel after the FST before returning them to their respective cage throughout the assessment. The duration of immobility of the rats were timed and then expressed as mean±standard of mean from six replicates (n=6) per group.
Forced swim test is one of the most commonly used assays for the study of depressive-like behavior in rodents. […] In forced swim test, a swimming cylinder filled with 30 cm depth of water. Depression assessment of rats was performed by scoring predominant behavior in each 5-s period of the 300-s test.

[5] = system: SH-SY5Y neuroblastoma cells; test: Cell viability (MTT) upon dexamethasone-induced neurotoxicity; assay type: cell-based, human; settings: dexamethasone 25 μM, MTT 48 h after treatment, unfermented MRS control = 100% viability, FIG. 11
Protocol: Neuroblastoma cell line, SH-SY5Y cells were purchased from Korea Cell Line Bank (KCLB; Seoul, Korea). Cells were maintained in high glucose Dulbecco's Modified Eagle Medium (DMEM; Difco, Detroit, Mich., USA) supplemented with 10% heat-inactivated fetal bovine serum (FBS; Gibco Life Technologies Inc, Grand Island, N.Y., USA), 100 U/mL penicillin/streptomycin (Gibco Life Technologies Inc, Grand Island, N.Y., USA). Cultures were seeded into flasks containing supplemented medium and maintained at 37° C. in a humidified atmosphere of 5% CO2 and 95% air.
The SH-SY5Y cells were seeded into 96-well culture plates at a seeding density 1×10^5 cells per well. All cells in this study were maintained in 10% serum medium until the dexamethasone (Dex; Sigma-Aldrich, Steinheim, Germany) treatment. Cells were incubated for 24 h to allow attachment to the culture plate before treatment. […] The 3-(4, 5 dimethylthiazol-2-yl)-2,5-diphenyl-tetrazolium bromide (MTT; Sigma-Aldrich, Steinheim, Germany) reduction was analyzed 48 h after treatment.
Cell viability was measured by quantitative colorimetric assay with MTT, as described previously by Denizot and Lang (J Immunol Methods. 1986 May 22; 89(2):271-7.). […] Colorimetric determination of MTT reduction was measured at 570 nm using microplate reader (Thermo Scientific, Waltham, Mass., US). […]

Compound | Duration of immobility ([1]; between naïve control, positive control, PS150 and protein fraction groups, FIG. 2) | Duration of exploratory activity ([1]; comparison between groups, P<0.05, FIG. 2) | Escape latency [2] | Number of entries into the open arms ([3]; P<0.05, FIG. 1(a)) | Ratio of time spent on the closed arms to the time spent on the open arms ([3]; P<0.05, FIG. 1(b)) | Time spent immobile [4] | Neuroprotective effect (cell viability) against dexamethasone [5]
Cc1nnc2n1-c1ccc(Cl)cc1C(c1ccccc1)=NC2 [alprazolam] | insignificantly different | insignificantly different | Insignificant difference | insignificant differences | insignificant differences | insignificantly different | 
fraction A: HPLC-purified fraction of the PS150 protein fraction, approximately 55 kDa, identified as elongation factor Tu (SEQ ID NO:4) |  |  |  |  |  |  | most prevalent neuroprotective effect
